Columns and labels:
A549 cells = test: A549 growth inhibition by chemotherapeutic agents (concentration selection); format: cell-based, human; details: A549, serial dilutions, 5 days, CCK-8
Protocol: First, sorafenib was dissolved in dimethyl sulfoxide.
First, gemcitabine was dissolved in dimethyl sulfoxide.
First, paclitaxel was dissolved in […].

[1] = test system: A549 (human lung cancer cell line); test: A549 cell proliferation analysis, anti-CD300c antibody with chemotherapeutic agent; format: cell-based; details: 5 days
Protocol: In order to identify the cancer cell growth inhibitory effect by combined treatment with an anti-CD300c monoclonal antibody and sorafenib, cell proliferation analysis was performed using A549 (human lung cancer cell line). Into a 96-well plate, 20,000 cancer cells were inoculated and treated with 10 ug/mL anti-CD300c monoclonal antibody and 9 μM sorafenib, followed by incubation for 5 days. After the incubation, 10 μL of CCK-8 (DOJINDO) was added to each well, followed by incubation for 4 hours, and the absorbance was measured at 450 nm.
In order to identify the cancer cell growth inhibitory effect by combined treatment with an anti-CD300c monoclonal antibody and gemcitabine, cell proliferation analysis was performed using A549 (human lung cancer cell line). The cells were treated with the anti-CD300c antibody in combination with 1.9 μM gemcitabine for 5 days, and then 10 μL of CCK-8 (DOJINDO) was added to each well, followed by incubation for 4 hours, and the absorbance was measured at 450 nm.
In order to identify the cancer cell growth inhibitory effect by combined treatment with an anti-CD300c monoclonal antibody and paclitaxel, cell proliferation analysis was performed using A549 (human lung cancer cell line). The cells were treated with the anti-CD300c monoclonal antibody in combination with paclitaxel and incubated for 5 days. Thereafter, 10 μL of CCK-8 (DOJINDO) was added to each well, followed by incubation for 4 hours, and the absorbance was measured at 450 nm.

[2] = test system: MKN45, IM95, HT-29, A549, HCT116, MDA-MB-231, HepG2 cancer cell lines; test: Cancer cell apoptosis resistance (rapamycin, Annexin V / PI fluorescence); format: cell-based, human; details: 8 hours treatment, then rapamycin 48 hours
Text: (§1) In order to identify whether the combined treatment with an anti-CD300c monoclonal antibody and a chemotherapeutic agent can inhibit cancer cell apoptosis resistance, MKN45 (human gastric cancer cell line), IM95 (human gastric cancer cell line), HT-29 (human colon cancer cell line), A549 (human lung cancer cell line), HCT116 (human colon cancer cell line), MDA-MB-231 (human breast cancer cell line), and HepG2 (human liver cancer cell line) were used. Each type of cancer cells were inoculated at 1×10^4 into a 96-well plate and incubated for 16 hours. The incubated cells were treated with an anti-CD300c monoclonal antibody and a chemotherapeutic agent in combination for 8 hours, and then treated with rapamycin for 48 hours. The degree of survival of cancer cells was identified by fluorescence analysis using Annexin V and propidium iodide (PI).
as §1, with “gemcitabine” for “a chemotherapeutic agent”, “The incubated cells were treated with an anti-CD300c monoclonal antibody and a chemotherapeutic agent in combination for 8 hours, and then treated with rapamycin for 48 hours.” left out
In order to identify whether the combined treatment with an anti-CD300c monoclonal antibody and paclitaxel can inhibit cancer cell apoptosis resistance, MKN45 (human gastric cancer cell line), IM95 (human gastric cancer cell line), HT-29 (human colon cancer cell line), A549 (human lung cancer cell line), HCT116 (human colon cancer cell line), MDA-MB-231 (human breast cancer cell line), and HepG2 (human liver cancer cell line) were used. […] The degree of survival of cancer cells was identified by fluorescence analysis using Annexin V and propidium iodide (PI).

[3] = test system: MKN45, IM95, HT-29, A549, HCT116, MDA-MB-231, HepG2 cancer cell lines; test: Cancer cell migration/infiltration (scratch wound); format: cell-based, human; details: 24 hours
Text: (§2) In order to identify the cancer cell migration/infiltration inhibitory effect by the combined treatment with an anti-CD300c monoclonal antibody and sorafenib, MKN45 (human gastric cancer cell line), IM95 (human gastric cancer cell line), HT-29 (human colon cancer cell line), A549 (human lung cancer cell line), HCT116 (human colon cancer cell line), MDA-MB-231 (human breast cancer cell line), and HepG2 (human liver cancer cell line) were used. Into a 6-well plate, 1×10^5 cancer cells were inoculated and incubated for 16 hours, and then each well was wounded by scratching with a pipette tip. The detached cells were removed by washing with medium, and then treated with an anti-CD300c monoclonal antibody for 8 hours. Thereafter, observation was performed for 24 hours. On the basis of the area of the wound formed by scratching with the pipette tip, the migration distance of cancer cells was measured, and this distance was calculated as a percentage (%) to identify the degree of migration inhibition.
as §2, with “migration/invasion” for “migration/infiltration”, “gemcitabine, MKN45,” for “sorafenib, MKN45 (human gastric cancer cell line),”, “inhibition. […]” for “inhibition.”

[4] = test system: CT26 cells (mouse colon cancer cell line); test: In vivo anticancer effect in huCD34-NSG mice bearing CT26 cells; parameters: species or system humanized mouse models (huCD34-NSG mice); details: antibody 25 mg/kg, chemotherapeutic agents 10 mg/kg, i.p. twice a week, four times
Protocol: In order to identify the anticancer effect under in vivo conditions by the combined treatment with an anti-CD300c monoclonal antibody and a chemotherapeutic agent, human solid tumor xenograft models were prepared by subcutaneous injection of 1×10^6 CT26 cells (mouse colon cancer cell line) to humanized mouse models (huCD34-NSG mice). From 3 days after the administration of cancer cells, the mice were divided into a group administered 25 mg/kg anti-CD300c monoclonal antibody alone, groups administered the chemotherapeutic agents sorafenib, gemcitabine, and paclitaxel at 10 mg/kg for each, groups administered an anti-CD300c monoclonal antibody and chemotherapeutic agents, and a non-administered group. After the intraperitoneal administration with the anti-CD300c monoclonal antibody and each of the chemotherapeutic agents alone or in combination twice a week, a total of four times, the solid tumor tissue was isolated from the mice to measure the size thereof to identify the therapeutic effect of the anti-CD300c monoclonal antibody alone and the effects of the combined administration with existing chemotherapeutic agents.

| Compound | cancer cell growth inhibitory effect (A549 cells) | inhibition at 1.9 µM ([1]; Homo sapiens, 120 h, A549, gemcitabine 1.9 μM, read-out: cancer cell growth inhibitory rate) [%] | increase in MFI compared with hIgG1 isotype control group ([2]; gemcitabine experiment) [%] | degree of migration inhibition ([3]; gemcitabine experiment) [%] | tumor inhibition rate [4] [%] | inhibition at 9 µM ([1]; Homo sapiens, 120 h, A549, antibody 10 ug/mL, sorafenib 9 μM, read-out: cancer cell growth inhibitory rate) [%] | increase in MFI compared with hIgG1 isotype control group ([2]; sorafenib experiment) [%] | degree of migration inhibition ([3]; sorafenib experiment) [%] | cancer cell growth inhibitory rate ([1]; A549, paclitaxel experiment) [%] | increase in MFI compared with hIgG1 isotype control group ([2]; paclitaxel experiment) [%] | degree of migration inhibition ([3]; paclitaxel experiment) [%] |
| --- | --- | --- | --- | --- | --- | --- | --- | --- | --- | --- | --- |
| Nc1ccn([C@@H]2O[C@H](CO)[C@@H](O)C2(F)F)c(=O)n1 [gemcitabine] | concentration-dependent cancer cell growth inhibitory effect | 38 | 21 | 28 | 25 |  |  |  |  |  |  |
| CNC(=O)c1cc(Oc2ccc(NC(=O)Nc3ccc(Cl)c(C(F)(F)F)c3)cc2)ccn1 [sorafenib] | concentration-dependent cancer cell growth inhibitory effect |  |  |  | 22 | 45 | 21 | 32 |  |  |  |
| CC(=O)O[C@H]1C(=O)[C@@]2(C)[C@H]([C@H](OC(=O)c3ccccc3)[C@]3(O)C[C@H](OC(=O)[C@H](O)[C@@H](NC(=O)c4ccccc4)c4ccccc4)C(C)=C1C3(C)C)[C@]1(OC(C)=O)CO[C@@H]1C[C@@H]2O [paclitaxel] | concentration-dependent cancer cell growth inhibitory effect |  |  |  | 21 |  |  |  | 24 | 19 | 20 |

Reference: patent US20240254220A1, “COMBINED THERAPY USING ANTI-CD300C ANTIBODY” (CentricsBio, Inc., priority 2021, published 2024)
